In patent US20250236616A1, “IMMUNOMODULATING AZALIDES” (Zoetis Services LLC, priority 2021, published 2025):

Experiments:
[1] = test system: TNF-α; experiment: Whole bovine blood assay, LPS-induced TNF-α; type: cell-based; conditions: fresh whole bovine blood, LPS stimulant; top drug concentration 250 μM
Protocol: Whole Blood Assay-Fresh whole bovine blood samples were collected into heparinized vacutainer tubes. Assay plates were prepared with 25 μL of drug diluted in PBS at varying concentration in 96 round bottom wells, then 225 μL of blood was added and plates incubated at 37° C. for 4 hours. Cells were stimulated with LPS (or PBS for controls) by adding 25 μL to the plates at a final concentration of 1 μg/mL and incubated at 37° C. for 18 hours. To collect plasma, plates were centrifuged at 2,000×g for 10 minutes and 100 μL of supernatant was transferred to a 96 well polypropylene plate that was sealed and stored at −80° C. Samples were assayed for cytokines using the Meso Scale Discovery (MSD) platform (described below). This same MSD platform was used to assess cytokines in the plasma collected directly from drug treated animals.
Cytokine Detection—An MSD U-Plex cytokine assay was developed following the MSD U-Plex protocol guide and included biotinylated capture antibodies against: bovine Interleukin (IL)-1β (Biorad), bovine IL-6 (R&D Systems) and bovine tumor necrosis factor (TNF)-α (R&D Systems). […] Assay calibrators (Kingfisher) were diluted to a concentration of […] in control lithium heparin plasma, followed by 4-fold serial dilutions into plasma. […] Antibodies were used at the following concentrations: anti-IL-1β at 1 μg/mL, anti-IL-6 at 1 μg/mL and anti-TNF-α at 0.5 μg/mL. Cytokines were quantified according to manufacturer's instructions using a chemiluminescent readout. In brief, 0.5 mL of all biotinylated antibodies were diluted to 10 μg/mL with Diluent 100 and paired to their respective linkers by adding 750 μL of supplied Linker solution and incubated for 30 minutes followed by addition of Stop solution for another 30 minutes. The linked antibodies were then diluted 10-fold into Stop solution. Plates were coated by adding 50 μL of antibody solutions per well and incubated covered and shaking for 1 hour at room temperature. Plates were washed three times with PBS/Tween20 prior to samples or standards being added at 30 μL per well and incubated as above. Plates were washed three times before detection antibodies were added along with 2% goat and rabbit serum to block and incubated same as above. Plates were washed a further three times before addition of 150 μL 2X Read buffer and read immediately on the SI6000 instrument (MSD). For soluble protein levels, a BCA protein kit (Thermofisher) was used. The cytokine concentrations (pg/mL) were normalized to the total protein levels for each sample. [Bassel et. al., BMC Veterinary Research (2020) 16:168]
Therefore, a fresh whole bovine blood assay was developed with LPS as a stimulant (TLR-4 agonist) and with IL-1β and TNF-α as the read-out. Compounds of the invention were evaluated against a positive control for their ability to inhibit LPS-induced IL-1β and TNF-α as an overall evaluation of relative potency and modulation of target pathways.
TNFα is a cell signaling protein, cytokine, that plays a key role in both acute and chronic inflammation. In the bovine whole blood in vitro screening assay the inhibition of TNFα as induced by stimulation by lipopolysaccharide (LPS) and as measured by half the maximal inhibitory concentration (IC50) is recognized as the primary biomarker of immunomodulation potency upon pretreatment with the compounds of the invention. IL-1 B is a mediator of the inflammation response and is involved in a number of cellular activities including proliferation, differentiation and apoptosis. IL-1ß is also released upon cellular stress or cytotoxicity or upon TLR stimulation. […] In order to estimate a therapeutic index from the in vitro assay a differential between the TNFα IC50 (immunomodulation potency) versus the perceived cellular toxicity concentration (IL-1β release or overstimulation) was utilized.

[2] = test system: IL-6; experiment: Whole bovine blood assay, LPS-induced IL-6; type: cell-based; conditions: fresh whole bovine blood, LPS stimulant; top drug concentration 250 μM

IC50 [1] [µM]	IC50 [2] [µM]	Structure (SMILES)
5	6	CC[C@H]1OC(=O)[C@H](C)[C@@H](O[C@H]2C[C@@](C)(OC)[C@](O)(CNCCC(C)C)[C@H](C)O2)[C@H](C)[C@@H](O[C@@H]2O[C@H](C)C[C@H](N(C)S(=O)(=O)c3ccc(Cl)cc3)[C@H]2O)[C@](C)(O)C[C@@H](C)CN[C@H](C)[C@@H](O)[C@]1(C)O [Example B-21]
19	46	CC[C@H]1OC(=O)[C@H](C)[C@@H](O)[C@H](C)[C@@H](O[C@H]2O[C@@H](C)C[C@@H](N(C)S(=O)(=O)Nc3ccccc3)[C@@H]2Oc2ccc(F)cc2)[C@](C)(O)C[C@@H](C)CN[C@H](C)[C@@H](O)[C@]1(C)O [Example A-37]
4	13	CC[C@H]1OC(=O)[C@H](C)[C@@H](O[C@H]2C[C@@](C)(OC)[C@](O)(CNC3CC3)[C@H](C)O2)[C@H](C)[C@@H](O[C@@H]2O[C@H](C)C[C@H](N(C)S(=O)(=O)Nc3ccc(C(F)(F)F)cc3)[C@H]2O)[C@](C)(O)C[C@@H](C)CN[C@H](C)[C@@H](O)[C@]1(C)O [Example B-70]
9	26	CC[C@H]1OC(=O)[C@H](C)[C@@H](O[C@H]2C[C@@](C)(OC)[C@](O)(CNCC(C)C)[C@H](C)O2)[C@H](C)[C@@H](O[C@@H]2O[C@H](C)C[C@H](N(C)S(=O)(=O)Nc3ccc(C(F)(F)F)cc3)[C@H]2O)[C@](C)(O)C[C@@H](C)CN[C@H](C)[C@@H](O)[C@]1(C)O [Example B-85]
17	33	CC[C@H]1OC(=O)[C@H](C)[C@@H](O[C@H]2C[C@@](C)(OC)[C@](O)(CNc3ccc(OC)cc3)[C@H](C)O2)[C@H](C)[C@@H](O[C@@H]2O[C@H](C)C[C@H](N(C)S(=O)(=O)c3ccc(Cl)cc3)[C@H]2O)[C@](C)(O)C[C@@H](C)CN[C@H](C)[C@@H](O)[C@]1(C)O [Example B-27]
7	10	CCCNC[C@]1(O)[C@H](C)O[C@@H](O[C@H]2[C@H](C)[C@@H](O[C@@H]3O[C@H](C)C[C@H](N(C)S(=O)(=O)c4ccc(Cl)cc4)[C@H]3O)[C@](C)(O)C[C@@H](C)CN(C)[C@H](C)[C@@H](O)[C@](C)(O)[C@@H](CC)OC(=O)[C@@H]2C)C[C@@]1(C)OC [Example B-153]
5	4	CCCN([C@H]1C[C@@H](C)O[C@@H](O[C@@H]2[C@@H](C)[C@H](O[C@H]3C[C@@](C)(OC)[C@](O)(CN4CCCCC4)[C@H](C)O3)[C@@H](C)C(=O)O[C@H](CC)[C@@](C)(O)[C@H](O)[C@@H](C)NC[C@H](C)C[C@@]2(C)O)[C@@H]1O)S(=O)(=O)c1ccc(Cl)cc1 [Example C-40]
9	23	CC[C@H]1OC(=O)[C@H](C)[C@@H](O[C@H]2C[C@@](C)(OC)[C@](O)(CNCc3ccncc3)[C@H](C)O2)[C@H](C)[C@@H](O[C@@H]2O[C@H](C)C[C@H](N(C)S(=O)(=O)Nc3ccc(C(F)(F)F)cc3)[C@H]2O)[C@](C)(O)C[C@@H](C)CN[C@H](C)[C@@H](O)[C@]1(C)O [Example B-89]
9	10	CC[C@H]1OC(=O)[C@H](C)[C@@H](O[C@H]2C[C@@](C)(OC)[C@](O)(CN3CCCCC3)[C@H](C)O2)[C@H](C)[C@@H](O[C@@H]2O[C@H](C)C[C@H](N(C)S(=O)(=O)Nc3cccc(Cl)c3)[C@H]2O)[C@](C)(O)C[C@@H](C)CN[C@H](C)[C@@H](O)[C@]1(C)O [Example C-23]
22	31	CCCN1C[C@H](C)C[C@@](C)(O)[C@H](O[C@@H]2O[C@H](C)C[C@H](N(C)S(N)(=O)=O)[C@H]2O)[C@@H](C)[C@H](O[C@H]2C[C@@](C)(OC)[C@](O)(CNc3ccc(OC)cc3)[C@H](C)O2)[C@@H](C)C(=O)O[C@H](CC)[C@@](C)(O)[C@H](O)[C@H]1C [Example B-157]
5	4	CC[C@H]1OC(=O)[C@H](C)[C@@H](O[C@H]2C[C@@](C)(OC)[C@](O)(CN3CCCCC3)[C@H](C)O2)[C@H](C)[C@@H](O[C@@H]2O[C@H](C)C[C@H](N(C)S(=O)(=O)c3nccn3C)[C@H]2Oc2ccc(F)cc2)[C@](C)(O)C[C@@H](C)CN[C@H](C)[C@@H](O)[C@]1(C)O [Example C-56]
6	6	CC[C@H]1OC(=O)[C@H](C)[C@@H](O[C@H]2C[C@@](C)(OC)[C@](O)(CN3CCCCC3)[C@H](C)O2)[C@H](C)[C@@H](O[C@@H]2O[C@H](C)C[C@H](N(CC(C)C)S(=O)(=O)c3ccc(Cl)cc3)[C@H]2O)[C@](C)(O)C[C@@H](C)CN[C@H](C)[C@@H](O)[C@]1(C)O [Example C-42]
7	8	CCCNC[C@]1(O)[C@H](C)O[C@@H](O[C@H]2[C@H](C)[C@@H](O[C@@H]3O[C@H](C)C[C@H](N(CC(C)C)S(=O)(=O)c4ccc(OC)cc4)[C@H]3O)[C@](C)(O)C[C@@H](C)CN[C@H](C)[C@@H](O)[C@](C)(O)[C@@H](CC)OC(=O)[C@@H]2C)C[C@@]1(C)OC [Example B-149]
9	10	CCCNC[C@]1(O)[C@H](C)O[C@@H](O[C@H]2[C@H](C)[C@@H](O[C@@H]3O[C@H](C)C[C@H](N(C)S(=O)(=O)c4ccccc4NC4CC4)[C@H]3O)[C@](C)(O)C[C@@H](C)CN[C@H](C)[C@@H](O)[C@](C)(O)[C@@H](CC)OC(=O)[C@@H]2C)C[C@@]1(C)OC [Example B-63]
7	4	CC[C@H]1OC(=O)[C@H](C)[C@@H](O[C@H]2C[C@@](C)(OC)[C@](O)(CNCc3ccccc3)[C@H](C)O2)[C@H](C)[C@@H](O[C@@H]2O[C@H](C)C[C@H](N(C)S(=O)(=O)c3nccn3C)[C@H]2Oc2ccc(F)cc2)[C@](C)(O)C[C@@H](C)CN[C@H](C)[C@@H](O)[C@]1(C)O [Example B-141]
45	10	CCCNC[C@]1(O)[C@H](C)O[C@@H](O[C@H]2[C@H](C)[C@@H](O[C@@H]3O[C@H](C)C[C@H](N(C)S(=O)(=O)c4cnc5ccccn45)[C@H]3Oc3ccc(OC)cc3)[C@](C)(O)C[C@@H](C)CN[C@H](C)[C@@H](O)[C@](C)(O)[C@@H](CC)OC(=O)[C@@H]2C)C[C@@]1(C)OC [Example B-118]
37	71	CCCNC[C@]1(O)[C@H](C)O[C@@H](O[C@H]2[C@H](C)[C@@H](O[C@@H]3O[C@H](C)C[C@H](N(C)S(=O)(=O)N(C)c4ccc(F)cc4)[C@H]3O)[C@](C)(O)C[C@@H](C)CN[C@H](C)[C@@H](O)[C@](C)(O)[C@@H](CC)OC(=O)[C@@H]2C)C[C@@]1(C)OC [Example B-61]
8	26	CC[C@H]1OC(=O)[C@H](C)[C@@H](O[C@H]2C[C@@](C)(OC)[C@](O)(CNCc3ccccc3)[C@H](C)O2)[C@H](C)[C@@H](O[C@@H]2O[C@H](C)C[C@H](N(C)S(=O)(=O)Nc3ccc(C(F)(F)F)cc3)[C@H]2O)[C@](C)(O)C[C@@H](C)CN[C@H](C)[C@@H](O)[C@]1(C)O [Example B-90]
4	6	CC[C@H]1OC(=O)[C@H](C)[C@@H](O[C@H]2C[C@@](C)(OC)[C@](O)(CN3CCCCC3)[C@H](C)O2)[C@H](C)[C@@H](O[C@@H]2O[C@H](C)C[C@H](N(C)S(=O)(=O)Nc3ccc(C(C)(C)C)cc3)[C@H]2O)[C@](C)(O)C[C@@H](C)CN[C@H](C)[C@@H](O)[C@]1(C)O [Example C-22]
5	17	CC[C@H]1OC(=O)[C@H](C)[C@@H](O[C@H]2C[C@@](C)(OC)[C@](O)(CNCc3ccc(C(F)(F)F)cc3)[C@H](C)O2)[C@H](C)[C@@H](O[C@@H]2O[C@H](C)C[C@H](N(C)S(=O)(=O)c3ccc(Cl)cc3)[C@H]2O)[C@](C)(O)C[C@@H](C)CN[C@H](C)[C@@H](O)[C@]1(C)O [Example B-25]
